Data from patent US8980901B2, “5-fluoro-3-phenyl-2[1-(9H-purin-6-ylamino)propyl]-3H-quinazolin-4-one and 6-fluoro-3-phenyl-2-[1-(9H-purin-6-ylamino)ethyl]-3H-quinazolin-4-one as inhibitors of human phosphatidylinositol 3-kinase delta” (Icos Corporation, priority 2004, dated 2015).

Legend:
osteoclasts = experiment: Osteoclast function (pit depth on dentine slices); format: cell-based, mouse; conditions: PI3K inhibitors 100 nM, 72 hr
Description: To analyze the effect of the present PI3Kδ inhibitor compounds on osteoclasts, mouse bone marrow cells are isolated and differentiated to osteoclasts by treating the cells with Macrophage Colony Stimulating Factor^−1 (mCSF^−1) and Osteoprotegerin Ligand (OPGL) in serum-containing medium (αMEM with 10% heat-inactivated FBS; Sigma) for 3 days. On day four, when the osteoclasts had developed, the medium is removed and cells are harvested. The osteoclasts are plated on dentine slices at 10^5 cells/well in growth medium, i.e., αMEM containing 1% serum and 2% BSA with […] OPGL and 10 ng/mL mCSF^−1. After 3 hr, the medium is changed to 1% serum and 1% BSA, with or without osteopontin (25 μg/mL) and the PI3K inhibitors (100 nM). The medium is changed every 24 hours with fresh osteopontin and the inhibitors. At 72 hr, the medium is removed, and the dentine surfaces are washed with water to remove cell debris and stained with acid hematoxylin. Excess stain is washed and the pit depths are quantitated using confocal microscopy.

Class I PI 3-kinases = conditions: read-out: IC50 values against each of these PI 3-kinases; cited from earlier work
neutrophil = conditions: cited from earlier work

## O=c1cc(N2CCOCC2)oc2c(-c3ccccc3)cccc12 [LY294002]
osteoclasts
  inhibition of osteoclast activity: inhibited osteoclast activity
Class I PI 3-kinases
  IC50: ~1000 nM
neutrophil
  neutrophil migration: block
  superoxide release: block

## COC[C@H]1OC(=O)c2coc3c2[C@@]1(C)C1=C(C3=O)[C@@H]2CCC(=O)[C@@]2(C)C[C@H]1OC(C)=O [wortmannin]
osteoclasts
  inhibition of osteoclast activity: inhibited osteoclast activity
neutrophil
  neutrophil migration: block
  superoxide release: block
